Assay results: patent publication US7208162B2, “Combination therapy of respiratory diseases using antibodies and anti-inflammatory agents” (priority 2000, dated 2007)

Tests used:
[1] = test system: Respiratory Syncytial Virus; details: systemically administered; 147 infants; cited from earlier work
[2] = cited from earlier work
[3] = test system: RSV; details: aerosol inhalation; versus untreated patients; cited from earlier work
[4] = test system: respiratory syncytial virus (RSV/Long); experiment: Example 3: different steroids with the same antibody in RSV pneumonia, arithmetic mean pathology scores; assay type: in vivo; details: 8 mg/kg/day i.p. days 3-5 plus antibody 15 mg/kg day 3; day 6
Experimental: The following procedure was performed using inbred cotton rats (Sigmodon hispidus). On day 0, young adult cotton rats were divided into 8 groups of 4 animals each (total: 32 animals). Identification of each group in terms of treatment was as follows:
In each case (Groups B–H), approximately 10^6.5 plaque forming units (pfu) of respiratory syncytial virus (RSV/Long) was administered intranasally in a volume of 100 μl.
(§1) On day 3, treatment began as described above for each of the groups. The animals were each weighed and treated according to the indicated regimen. Antibody was palivizumab wherein 15 mg/kg was the dose used in each case. All dosages are given as mg per kg of body weight.
On day 4, animals in groups D through H were treated as described for day 3 but no additional antibody was given.
On day 5, animals in groups D through H were treated as on […] (again with no additional antibody).
On day 6, all animals were sacrificed. Lungs from all of the animals were inflated with formalin for histological examination.

[5] = test system: respiratory syncytial virus (RSV/Long); experiment: Example 1: antibody/triamcinolone therapy of RSV-infected cotton rats (virus titer, pulmonary pathology); assay type: in vivo; details: treatment i.m. beginning 3 days post-infection; antibody 15 mg/kg, triamcinolone 1-16 mg/kg; lungs days 4 and 6
Experimental: The following procedure was performed using inbred cotton rats (Sigmodon hispidus). On day 0, young adult cotton rats were divided into 9 groups of 12 animals each (total: 108 animals). Identification of each group in terms of treatment was as follows:
In each case (Groups B–I), approximately 10^6.5 plaque forming units (pfu) of respiratory syncytial virus (RSV/Long) was administered intranasally in a volume of 100 μl.
as §1, with “regimen. All antibody and steroid administration was intramuscular (i.e., systemic) and both antibody and steroid were administered together.” for “regimen.”
On day 4, six animals from each group were sacrificed, their lungs bisected, with half being homogenized for viral quantitation and the other half being inflated with formalin for histological examination. The remaining six animals in each of groups D through I were treated with the dose of triamcinolone indicated above but no additional antibody was given.
On day 5, the remaining six animals in each group were treated again as described for day 4 (again with no additional antibody).
On day 6, the remaining 6 animals from each group were sacrificed and data collected as described for day 4. Thus, their lungs were bisected, with half being homogenized for viral quantitation and the other half being inflated with formalin for histological examination.
Results of these experiments are shown graphically in FIGS. 2(a through e).
This experiment was duplicated on a separate population of 108 cotton rats divided into groups and treated as just described with similar results reported in FIG. 3 (FIG. 3(a) showing virus titer and FIG. 3(b) showing composite pathology score). The conclusions herein are the result of data from both experiments. The results for composite pathology scores are shown in FIG. 1 reflecting the results of both sets of experiments.

[6] = test system: RSV; experiment: Example 5: lung pathology score (0 to 100) on day 6 after MAb and glucocorticoid therapy; assay type: in vivo, cotton rats
Experimental: Twenty eight (28) cotton rats (CRs) were infected intranasally with 6.5 logs of RSV (as 0.1 ml of inoculum), leading to dramatic lung pathology 6 days post-infection (PI). On day 3 PI (the peak for viral infection), 7 groups of 4 animals received one of the following: no therapy, or intramuscular (i.m.) MAb (15 mg/kg) (MAb=palivizumab) i.m. triamcinolone (TRI;Steris Laboratories, Phoenix, Ariz.) at 16 mg/kg and MAb; i.p. methylprednisolone (MED; Solu-Medrol® Pharmacia and Upjohn, Kalamazoo, Mich.) 4 mg/kg and MAb; i.p. MED at 8 mg/kg and MAb; i.p. dexamethasone (DEX; Elkins-Sinn, Cherry Hill, N.J.) 0.6 mg/kg and MAb; or i.p. DEX 1.2 mg/kg and MAb (TRI and DEX once daily, MED divided into every 6 hours). All glucocorticoids were repeated on days 4 and 5. The dose, frequency and route of administration of dexamethasone and methylprednisolone were extrapolated from human use recommendations.
On day 6, all groups (including 4 uninfected CRs were sacrificed (in general by carbon dioxide asphyxiation). For pathology, tissues were inflated and formalin fixed and coronal paraffin sections were cut at 4 μm thickness. Lung tissue slides scored on a 0 (normal) to 100 (marked pathology) severity scale, for bronchiolitis, alveolitis, and interstitial pneumonia.
Results are shown graphically in FIG. 7A and summarized as follows in terms of pathology score (0 to 100).

[7] = MAb 15 mg/kg i.m. day 3, TRI 16 mg/kg i.m. days 3-5

For C[C@]12C=CC(=O)C=C1CC[C@@H]1[C@@H]2[C@@H](O)C[C@@]2(C)[C@H]1CC[C@]2(O)C(=O)CO [prednisolone], the “effectiveness in infant RSV” value [1] is given as “ineffectiveness”.
For NC(=O)c1ncn([C@@H]2O[C@H](CO)[C@@H](O)[C@H]2O)n1 [ribavirin], the bioavailability ([2]; given orally) is given as “about 45%”, the “time of peak concentrations in plasma” value ([2]; in vivo, po) is given as 1 to 2 h and the “level of secondary infection following cessation of treatment” value [3] is given as “significantly higher than in untreated patients”.
With C[C@H]1C[C@@H]2[C@H]([C@@H](O)C[C@@]3(C)[C@H]2CC[C@]3(O)C(=O)COC(=O)CCC(=O)[O-])[C@@]2(C)C=CC(=O)C=C12.[Na+] [solumedrol] the “pulmonary pathology (arithmetic mean pathology scores) compared with triamcinolone” value [4] was “worked almost as well as triamcinolone”.
With C[C@]12C=CC(=O)C=C1CC[C@H]1[C@@H]3C[C@@H](O)[C@](O)(C(=O)CO)[C@@]3(C)C[C@H](O)[C@@]12F [triamcinolone] the pulmonary pathology [5] was “positive effect on pulmonary pathology” and the “viral clearance (RSV titer in lungs)” value [5] was “retarded viral clearance”.
In the case of “palivizumab: anti-RSV IgG monoclonal antibody, commercially palivizumab, sequence described as Medi-493 (U.S. Pat. No. 5,824,307 FIGS. 7 and 8)”, the pulmonary pathology [5] is reported as “no significant effect on pulmonary pathology”, the “viral clearance (RSV titer in lungs)” value [5] is reported as “accelerated viral clearance” and the “pathology (summary of Table 1)” value [6] is reported as “did not reduce pathology”. For the same compound, the “Alveolitis pathology score (0 to 100)” value [6, 7] was 38, the “Bronchiolitis pathology score (0 to 100)” value [6, 7] was 75 and the “Interstitial Pneumonia pathology score (0 to 100)” value [6, 7] was 49. The “lung tissue histology (inflammatory infiltrates)” value ([6]; palivizumab day 3, methylprednisolone days 3, 4 and 5, hematoxylin and eosin, 64X) was “Little or no improvement”.
